The results in this text go back to patent US8372592B2, “High resolution label free analysis of cellular properties” (X-Body, Inc., priority 2008, dated 2013).

In this assay the target is VCAM-1 and VLA-4 binding (J6 cells, which express VLA-4) (Homo sapiens, UniProt P05556+P13612). The following applies: J6 cells + 1 mM Mn2+; EDTA added at the 110 minute mark; FIG. 4.
Sequence of VCAM-1 and VLA-4 binding (J6 cells, which express VLA-4) (P13612 34-1032): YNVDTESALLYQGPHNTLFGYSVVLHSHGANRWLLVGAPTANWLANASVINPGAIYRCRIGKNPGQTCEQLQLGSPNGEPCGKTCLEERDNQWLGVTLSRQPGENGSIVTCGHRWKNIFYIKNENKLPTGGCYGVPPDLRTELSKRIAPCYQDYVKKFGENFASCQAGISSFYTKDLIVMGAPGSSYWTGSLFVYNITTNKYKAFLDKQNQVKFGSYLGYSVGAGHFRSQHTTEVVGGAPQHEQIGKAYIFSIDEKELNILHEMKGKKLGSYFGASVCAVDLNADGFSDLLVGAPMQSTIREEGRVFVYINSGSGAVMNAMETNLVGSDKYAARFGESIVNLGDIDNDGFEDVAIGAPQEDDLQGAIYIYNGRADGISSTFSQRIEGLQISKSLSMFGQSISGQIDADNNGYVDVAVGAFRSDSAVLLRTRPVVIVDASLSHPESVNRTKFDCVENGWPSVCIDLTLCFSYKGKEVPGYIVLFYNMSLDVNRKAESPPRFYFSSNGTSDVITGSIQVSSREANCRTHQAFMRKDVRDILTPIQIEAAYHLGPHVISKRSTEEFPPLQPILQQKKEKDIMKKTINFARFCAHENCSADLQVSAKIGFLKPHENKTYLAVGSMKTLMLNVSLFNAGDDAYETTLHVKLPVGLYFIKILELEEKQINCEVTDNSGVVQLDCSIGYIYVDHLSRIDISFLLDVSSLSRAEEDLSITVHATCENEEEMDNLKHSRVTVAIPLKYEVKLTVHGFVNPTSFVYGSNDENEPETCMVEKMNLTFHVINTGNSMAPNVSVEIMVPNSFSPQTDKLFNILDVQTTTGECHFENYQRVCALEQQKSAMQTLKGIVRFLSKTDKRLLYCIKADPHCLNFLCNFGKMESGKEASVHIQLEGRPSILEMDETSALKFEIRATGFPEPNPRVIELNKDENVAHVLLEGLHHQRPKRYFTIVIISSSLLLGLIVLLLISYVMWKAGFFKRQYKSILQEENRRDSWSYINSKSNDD
Sequence of VCAM-1 and VLA-4 binding (J6 cells, which express VLA-4) (P05556 21-798): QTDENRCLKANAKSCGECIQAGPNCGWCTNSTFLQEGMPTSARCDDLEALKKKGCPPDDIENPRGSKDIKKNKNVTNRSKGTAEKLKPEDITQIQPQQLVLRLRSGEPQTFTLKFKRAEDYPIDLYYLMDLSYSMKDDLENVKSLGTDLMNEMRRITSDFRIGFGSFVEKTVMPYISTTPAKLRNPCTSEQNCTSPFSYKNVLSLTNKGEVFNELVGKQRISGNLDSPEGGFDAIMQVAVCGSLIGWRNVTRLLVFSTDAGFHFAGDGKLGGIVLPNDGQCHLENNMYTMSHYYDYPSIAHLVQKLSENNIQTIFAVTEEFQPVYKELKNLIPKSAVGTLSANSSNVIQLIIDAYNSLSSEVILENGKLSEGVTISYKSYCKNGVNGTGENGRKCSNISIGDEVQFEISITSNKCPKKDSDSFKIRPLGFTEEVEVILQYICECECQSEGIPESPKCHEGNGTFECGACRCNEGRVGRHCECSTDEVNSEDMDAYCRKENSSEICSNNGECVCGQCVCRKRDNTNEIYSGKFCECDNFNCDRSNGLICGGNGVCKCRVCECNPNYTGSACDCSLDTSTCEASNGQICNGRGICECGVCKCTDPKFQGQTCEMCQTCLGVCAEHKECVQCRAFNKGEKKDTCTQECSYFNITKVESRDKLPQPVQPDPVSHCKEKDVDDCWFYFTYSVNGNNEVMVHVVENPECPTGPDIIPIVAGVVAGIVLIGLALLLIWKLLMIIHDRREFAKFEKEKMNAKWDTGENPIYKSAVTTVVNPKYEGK

Procedure: VCAM-1 can be fused or bound to a ZZ-binding domain from Protein A. The ZZ-binding domain will specifically bind to IgG immobilized on the surface of the biosensor. Cells that express VLA-4 will bind to the VCAM-1 adhesion protein, which is bound to IgG immobilized to the surface of the biosensor. Therefore cells expressing an adhesion protein ligand will be immobilized to the biosensor surface.
VCAM-1, which was fused to the ZZ-binding domain of Protein A, was added to a biosensor having IgG immobilized to its surface. J6 cells, which express VLA-4, were added to the biosensor surface. […] The “J6 cells+1 mM Mn^2+” and “Buffer” lines shown in FIG. 4 both contained J6 cells and 1 mM Mn^2+. The “J6 cells and EDTA” line contained J6 cells and EDTA. At the 110 minute mark, EDTA was added to the “J6 cells+1 mM Mn^2+” cells.

`O=C(O)CN(CCN(CC(=O)O)CC(=O)O)CC(=O)O` [EDTA]: the “amount of binding of cells to the VCAM-1 immobilized to the surface of the biosensor” value is “quickly dropped off”.
